For this experiment, the system named is myrosinase (bglA, 6-phospho-β-glucosidase, GH1). As to the kind of experiment: initial rates, Lineweaver-Burk plot. Format: biochemical, Bacillus sp. NGB-B10. The following applies: 0.05 M phosphate buffer pH 7.0; 1-20 mM sinigrin; partially purified enzyme.

SMILES strings stand for the structures.

As usually defined, the Km is the concentration of substrate that gives half-maximal velocity. As for `C=CC/C(=N/OS(=O)(=O)O)S[C@@H]1O[C@H](CO)[C@@H](O)[C@H](O)[C@H]1O` [sinigrin], the Km stood at 2500 µM.

The values above are taken from PMC9440883, “A new source of bacterial myrosinase isolated from endophytic Bacillus sp. NGB-B10, and its relevance in biological control activity” (World Journal of Microbiology & Biotechnology, 2022).
